Laboratory results as given in paper PMC12454493, “Insight on novel sulfamoylphenyl pyrazole derivatives as anticancer carbonic anhydrase inhibitors” (Molecular Diversity, 2024).

Legend:
Type in all cases: cell-based
SF-268 = assay: NCI-60 one-dose SRB screen (CNS Cancer); conditions: Homo sapiens, single dose 10 µM, 48 h, read-out: Growth inhibition percent (GI %)
Experimental: (§1) The National Cancer Institute (NCI) Developmental Therapeutic Program (www.dtp.nci.nih.gov) selected the 20 novel synthesized compounds 4a-e, 5a-e, 6a-c, 9a-e, 10 and 11 to test for their anticancer activity at a single dose of 10 µM using SRB assay. […] Supplementary Data S3; Table S1 presents the detailed screening results of the most promising compounds. The preliminary screening’s detailed results for the remaining compounds are elucidated in the (Supplementary Data S3; Table S2).
(§2) The guidelines of the Drug Evaluation Branch’s protocol at the NCI in Bethesda served as the basis for the in vitro anticancer screening assays. at one dose 10 µM against a panel of 60 cancer cell lines. The human tumor cell lines used belonged to nine panels: leukemia, melanoma, lung, colon, CNS, ovarian, renal, prostate and breast cancers using the sulforhodamine B (SRB) assay in a 48 h drug exposure protocol.

SNB-75 = assay: NCI-60 one-dose SRB screen (CNS Cancer); conditions: Homo sapiens, single dose 10 µM, 48 h, read-out: Growth inhibition percent (GI %)
Experimental: as §1, §2

SF-539 = assay: NCI-60 one-dose SRB screen (CNS Cancer); conditions: Homo sapiens, single dose 10 µM, 48 h, read-out: Growth inhibition percent (GI %)
Experimental: as §1, §2

U251 = assay: NCI-60 one-dose SRB screen (CNS Cancer); conditions: Homo sapiens, U-251, single dose 10 µM, 48 h, read-out: Growth inhibition percent (GI %)
Experimental: as §1, §2

SNB-19 = assay: NCI-60 one-dose SRB screen (CNS Cancer); conditions: Homo sapiens, single dose 10 µM, 48 h, read-out: Growth inhibition percent (GI %)
Experimental: as §1, §2

SF-295 = assay: NCI-60 one-dose SRB screen (CNS Cancer); conditions: Homo sapiens, single dose 10 µM, 48 h, read-out: Growth inhibition percent (GI %)
Experimental: as §1, §2

NCI-H23 = assay: NCI-60 one-dose SRB screen (Non-Small Cell Lung Cancer); conditions: Homo sapiens, single dose 10 µM, 48 h, read-out: Growth inhibition percent (GI %)
Experimental: as §1, §2

NCI-H460 = assay: as above; conditions: Homo sapiens, single dose 10 µM, 48 h, read-out: Growth inhibition percent (GI %)
Experimental: as §1, §2

A549/ATCC = assay: as above; conditions: Homo sapiens, single dose 10 µM, 48 h, read-out: Growth inhibition percent (GI %)
Experimental: as §1, §2

HOP-92 = assay: as above; conditions: Homo sapiens, single dose 10 µM, 48 h, read-out: Growth inhibition percent (GI %)
Experimental: as §1, §2

NCI-H226 = assay: as above; conditions: Homo sapiens, single dose 10 µM, 48 h, read-out: Growth inhibition percent (GI %)
Experimental: as §1, §2

HOP-62 = assay: as above; conditions: Homo sapiens, single dose 10 µM, 48 h, read-out: Growth inhibition percent (GI %)
Experimental: as §1, §2

EKVX = assay: as above; conditions: Homo sapiens, single dose 10 µM, 48 h, read-out: Growth inhibition percent (GI %)
Experimental: as §1, §2

NCI-H522 = assay: as above; conditions: Homo sapiens, single dose 10 µM, 48 h, read-out: Growth inhibition percent (GI %)
Experimental: as §1, §2

NCI-H322M = assay: as above; conditions: Homo sapiens, single dose 10 µM, 48 h, read-out: Growth inhibition percent (GI %)
Experimental: as §1, §2

DU-145 = assay: NCI-60 one-dose SRB screen (Prostate Cancer); conditions: Homo sapiens, single dose 10 µM, 48 h, read-out: Growth inhibition percent (GI %)
Experimental: as §1, §2

PC-3 = assay: NCI-60 one-dose SRB screen (Prostate Cancer); conditions: Homo sapiens, single dose 10 µM, 48 h, read-out: Growth inhibition percent (GI %)
Experimental: as §1, §2

HL-60(TB) = assay: NCI-60 one-dose SRB screen (Leukemia); conditions: Homo sapiens, single dose 10 µM, 48 h, read-out: Growth inhibition percent (GI %)
Experimental: as §1, §2

K-562 = assay: NCI-60 one-dose SRB screen (Leukemia); conditions: Homo sapiens, K562, single dose 10 µM, 48 h, read-out: Growth inhibition percent (GI %)
Experimental: as §1, §2

RPMI-8226 = assay: NCI-60 one-dose SRB screen (Leukemia); conditions: Homo sapiens, single dose 10 µM, 48 h, read-out: Growth inhibition percent (GI %)
Experimental: as §1, §2

CCRF-CEM = assay: NCI-60 one-dose SRB screen (Leukemia); conditions: Homo sapiens, single dose 10 µM, 48 h, read-out: Growth inhibition percent (GI %)
Experimental: as §1, §2

MOLT-4 = assay: NCI-60 one-dose SRB screen (Leukemia); conditions: Homo sapiens, single dose 10 µM, 48 h, read-out: Growth inhibition percent (GI %)
Experimental: as §1, §2

SK-MEL-28 = assay: NCI-60 one-dose SRB screen (Melanoma); conditions: Homo sapiens, single dose 10 µM, 48 h, read-out: Growth inhibition percent (GI %)
Experimental: as §1, §2

UACC-257 = assay: NCI-60 one-dose SRB screen (Melanoma); conditions: Homo sapiens, single dose 10 µM, 48 h, read-out: Growth inhibition percent (GI %)
Experimental: as §1, §2

UACC-62 = assay: NCI-60 one-dose SRB screen (Melanoma); conditions: Homo sapiens, single dose 10 µM, 48 h, read-out: Growth inhibition percent (GI %)
Experimental: as §1, §2

MALME-3M = assay: NCI-60 one-dose SRB screen (Melanoma); conditions: Homo sapiens, single dose 10 µM, 48 h, read-out: Growth inhibition percent (GI %)
Experimental: as §1, §2

LOX IMVI = assay: NCI-60 one-dose SRB screen (Melanoma); conditions: Homo sapiens, single dose 10 µM, 48 h, read-out: Growth inhibition percent (GI %)
Experimental: as §1, §2

SK-MEL-5 = assay: NCI-60 one-dose SRB screen (Melanoma); conditions: Homo sapiens, single dose 10 µM, 48 h, read-out: Growth inhibition percent (GI %)
Experimental: as §1, §2

MDA-MB-435 = assay: NCI-60 one-dose SRB screen (Melanoma); conditions: Homo sapiens, single dose 10 µM, 48 h, read-out: Growth inhibition percent (GI %)
Experimental: as §1, §2

M14 = assay: NCI-60 one-dose SRB screen (Melanoma); conditions: Homo sapiens, single dose 10 µM, 48 h, read-out: Growth inhibition percent (GI %)
Experimental: as §1, §2

SK-MEL-2 = assay: NCI-60 one-dose SRB screen (Melanoma); conditions: Homo sapiens, single dose 10 µM, 48 h, read-out: Growth inhibition percent (GI %)
Experimental: as §1, §2

SK-OV-3 = assay: NCI-60 one-dose SRB screen (Ovarian cancer); conditions: Homo sapiens, single dose 10 µM, 48 h, read-out: Growth inhibition percent (GI %)
Experimental: as §1, §2

OVCAR-8 = assay: NCI-60 one-dose SRB screen (Ovarian cancer); conditions: Homo sapiens, single dose 10 µM, 48 h, read-out: Growth inhibition percent (GI %)
Experimental: as §1, §2

OVCAR-3 = assay: NCI-60 one-dose SRB screen (Ovarian cancer); conditions: Homo sapiens, single dose 10 µM, 48 h, read-out: Growth inhibition percent (GI %)
Experimental: as §1, §2

OVCAR-5 = assay: NCI-60 one-dose SRB screen (Ovarian cancer); conditions: Homo sapiens, single dose 10 µM, 48 h, read-out: Growth inhibition percent (GI %)
Experimental: as §1, §2

NCI/ADR-RES = assay: NCI-60 one-dose SRB screen (Ovarian cancer); conditions: Homo sapiens, single dose 10 µM, 48 h, read-out: Growth inhibition percent (GI %)
Experimental: as §1, §2

OVCAR-4 = assay: NCI-60 one-dose SRB screen (Ovarian cancer); conditions: Homo sapiens, single dose 10 µM, 48 h, read-out: Growth inhibition percent (GI %)
Experimental: as §1, §2

IGROV1 = assay: NCI-60 one-dose SRB screen (Ovarian cancer); conditions: Homo sapiens, IGROV-1, single dose 10 µM, 48 h, read-out: Growth inhibition percent (GI %)
Experimental: as §1, §2

BT-549 = assay: NCI-60 one-dose SRB screen (Breast Cancer); conditions: Homo sapiens, single dose 10 µM, 48 h, read-out: Growth inhibition percent (GI %)
Experimental: as §1, §2

MDA-MB-231/ATCC = assay: NCI-60 one-dose SRB screen (Breast Cancer); conditions: Homo sapiens, single dose 10 µM, 48 h, read-out: Growth inhibition percent (GI %)
Experimental: as §1, §2

HS 578T = assay: NCI-60 one-dose SRB screen (Breast Cancer); conditions: Homo sapiens, single dose 10 µM, 48 h, read-out: Growth inhibition percent (GI %)
Experimental: as §1, §2

MDA-MB-468 = assay: NCI-60 one-dose SRB screen (Breast Cancer); conditions: Homo sapiens, single dose 10 µM, 48 h, read-out: Growth inhibition percent (GI %)
Experimental: as §1, §2

T-47D = assay: NCI-60 one-dose SRB screen (Breast Cancer); conditions: Homo sapiens, T47D, single dose 10 µM, 48 h, read-out: Growth inhibition percent (GI %)
Experimental: as §1, §2

MCF-7 = assay: NCI-60 one-dose SRB screen (Breast Cancer); conditions: Homo sapiens, MCF7, single dose 10 µM, 48 h, read-out: Growth inhibition percent (GI %)
Experimental: as §1, §2

## CCOC(=O)c1ccc(NC(=O)COC(=O)c2cn(-c3ccc(S(N)(=O)=O)cc3)nc2-c2ccc(C)cc2)cc1 [Compound 5b, 2-[(4-(Ethoxycarbonyl)phenyl)amino]-2-oxoethyl 1-(4-sulfamoylphenyl)-3-(p-tolyl)-1H-pyrazole-4-carboxylate]
SF-268
  inhibition at 10 µM: 55.4%
SNB-75
  inhibition at 10 µM: 62.9%
SF-539
  inhibition at 10 µM: 60.9%
U251
  inhibition at 10 µM: 54.1%
SNB-19
  inhibition at 10 µM: 48.4%
SF-295
  inhibition at 10 µM: 54.8%
NCI-H23
  inhibition at 10 µM: 40.3%
NCI-H460
  inhibition at 10 µM: 60.8%
A549/ATCC
  inhibition at 10 µM: 51.1%
HOP-92
  inhibition at 10 µM: 56.3%
NCI-H226
  inhibition at 10 µM: 43%
HOP-62
  inhibition at 10 µM: < 5%
EKVX
  inhibition at 10 µM: 55.6%
NCI-H522
  inhibition at 10 µM: 49%
NCI-H322M
  inhibition at 10 µM: 23.7%
DU-145
  inhibition at 10 µM: 28.9%
PC-3
  inhibition at 10 µM: 68.7%
HL-60(TB)
  inhibition at 10 µM: 70.2%
K-562
  inhibition at 10 µM: 74.5%
RPMI-8226
  inhibition at 10 µM: 64.1%
CCRF-CEM
  inhibition at 10 µM: 75.4%
MOLT-4
  inhibition at 10 µM: 83.8%
SK-MEL-28
  inhibition at 10 µM: 48.2%
UACC-257
  inhibition at 10 µM: 39.1%
UACC-62
  inhibition at 10 µM: 53.4%
MALME-3M
  inhibition at 10 µM: 35.5%
LOX IMVI
  inhibition at 10 µM: 53.6%
SK-MEL-5
  inhibition at 10 µM: 39.3%
MDA-MB-435
  inhibition at 10 µM: 47.3%
M14
  inhibition at 10 µM: 56.9%
SK-MEL-2
  inhibition at 10 µM: 27.9%
SK-OV-3
  inhibition at 10 µM: < 5%
OVCAR-8
  inhibition at 10 µM: 12.8%
OVCAR-3
  inhibition at 10 µM: 53.5%
OVCAR-5
  inhibition at 10 µM: 33.1%
NCI/ADR-RES
  inhibition at 10 µM: 22.3%
OVCAR-4
  inhibition at 10 µM: 58.8%
IGROV1
  inhibition at 10 µM: 21.4%
BT-549
  inhibition at 10 µM: 39.7%
MDA-MB-231/ATCC
  inhibition at 10 µM: 27.8%
HS 578T
  inhibition at 10 µM: 57.9%
MDA-MB-468
  inhibition at 10 µM: 52.5%
T-47D
  inhibition at 10 µM: 53.5%
MCF-7
  inhibition at 10 µM: 78.6%
